Results from ChEMBL document CHEMBL1138648, “Synthesis of new N-(2-(trifluoromethyl)pyridin-4-yl)anthranilic acid derivatives and their evaluation as anticancer agents” (2004).

Tests used:
Assay type in all cases: functional
SF-268 [1] = test: In vitro percent of proliferation of vehicle treated SF-268 human CNS cell lines was determined at 0.0010 M concentration
MCF7 [2] = test: In vitro percent of proliferation of vehicle treated MCF-7 human breast cell lines was determined at 0.0010 M concentration
NCI-H460 [3] = test: In vitro percent of proliferation of vehicle treated NCI-H460 human lung cell lines was determined at 0.0010 M concentration
NCI-H522 = test: Growth inhibitory activity against non small cell lung cancer H522 cell line was determined; conditions: Homo sapiens
EKVX = test: Growth inhibitory activity against non small cell lung cancer EKVX cell line was determined; conditions: Homo sapiens
786-0 = test: Growth inhibitory activity against Renal cancer 786-0 cell line was determined; conditions: Homo sapiens
HCT-15 = test: Growth inhibitory activity against colon cancer HCT-15 cell line was determined; conditions: Homo sapiens
SF-539 = test: Growth inhibitory activity against CNS cancer SF-539 cell line was determined; conditions: Homo sapiens
NCI-H460 [4] = test: Growth inhibitory activity against non small cell lung cancer H460 cell line was determined; conditions: Homo sapiens
BT-549 = test: Growth inhibitory activity against Breast cancer BT-549 cell line was determined; conditions: Homo sapiens
MDA-MB-231 = test: Growth inhibitory activity against Breast cancer MDA-MB-231/ATCC cell line was determined; conditions: Homo sapiens
UACC-257 = test: Growth inhibitory activity against Melanoma UACC-257 cell line was determined; conditions: Homo sapiens
UACC-62 = test: Growth inhibitory activity against Melanoma UACC-62 cell line was determined; conditions: Homo sapiens
PC-3 = test: Growth inhibitory activity against Prostate cancer PC-3 cell line was determined; conditions: Homo sapiens
HOP-92 = test: Growth inhibitory activity against non small cell lung cancer HOP-92 cell line was determined; conditions: Homo sapiens
HL-60 = test: Growth inhibitory activity against Leukemia HL-60(TB) cell line was determined; conditions: Homo sapiens
M14 = test: Growth inhibitory activity against Melanoma M14 cell line was determined; conditions: Homo sapiens
OVCAR-3 = test: Growth inhibitory activity against Ovarian cancer OVCAR-3 cell line was determined; conditions: Homo sapiens
SW-620 = test: Growth inhibitory activity against colon cancer SW-620 cell line was determined; conditions: Homo sapiens
A549 = test: Growth inhibitory activity against non small cell lung cancer A549/ATCC cells; conditions: Homo sapiens
MOLT-4 = test: Growth inhibitory activity against Leukemia MOLT-4 cell line was determined; conditions: Homo sapiens
ACHN = test: Growth inhibitory activity against Renal cancer ACHN cell line was determined; conditions: Homo sapiens
CCRF-CEM = test: Growth inhibitory activity against Leukemia CCRF-CEM cell line was determined; conditions: Homo sapiens
OVCAR-5 = test: Growth inhibitory activity against Ovarian cancer OVCAR-5 cell line was determined; conditions: Homo sapiens
MCF7 [5] = test: Growth inhibitory activity against Breast cancer MCF-7 cell line was determined; conditions: Homo sapiens
NCI-H322M = test: Growth inhibitory activity against non small cell lung cancer NCI-H322M cell line was determined; conditions: Homo sapiens
CAKI-1 = test: Growth inhibitory activity against Renal cancer CAKI-1 cell line was determined; conditions: Homo sapiens
SN12C = test: Growth inhibitory activity against Renal cancer SN12C cell line was determined; conditions: Homo sapiens
SK-MEL-5 = test: Growth inhibitory activity against Melanoma SK-MEL-5 cell line was determined; conditions: Homo sapiens
TK-10 = test: Growth inhibitory activity against Renal cancer TK-10 cell line was determined; conditions: Homo sapiens
Hs-578T = test: Growth inhibitory activity against Breast cancer HS 578T cell line was determined; conditions: Homo sapiens
A498 = test: Growth inhibitory activity against Renal cancer A498 cell line was determined; conditions: Homo sapiens
SF-295 = test: Growth inhibitory activity against CNS cancer SF-295 cell line was determined; conditions: Homo sapiens
MDA-MB-435 = test: Growth inhibitory activity against Breast cancer MDA-MB-435 cell line was determined; conditions: Homo sapiens
SF-268 [6] = test: Growth inhibitory activity against CNS cancer SF-268 cell line was determined; conditions: Homo sapiens
OVCAR-8 = test: Growth inhibitory activity against Ovarian cancer OVCAR-8 cell line was determined; conditions: Homo sapiens
NCI-H23 = test: Growth inhibitory activity against non small cell lung cancer NCI-H23 cell line was determined; conditions: Homo sapiens
HCC 2998 = test: Growth inhibitory activity against colon cancer HCC2998 cell line was determined; conditions: Homo sapiens
NCI/ADR-RES = test: Growth inhibitory activity against Breast cancer NCI/ADR-RES cell line was determined; conditions: Homo sapiens
SR = test: Growth inhibitory activity against Leukemia SR cell line was determined; conditions: Homo sapiens
K562 = test: Growth inhibitory activity against Leukemia K-562 cell line was determined; conditions: Homo sapiens
KM12 = test: Growth inhibitory activity against colon cancer KM12 cell line was determined; conditions: Homo sapiens
RPMI-8226 = test: Growth inhibitory activity against Leukemia RPMI-8226 cell line was determined; conditions: Homo sapiens
DU-145 = test: Growth inhibitory activity against Prostate cancer DU-145 cell line was determined; conditions: Homo sapiens
NCI-H226 = test: Growth inhibitory activity against non small cell lung cancer NCI-H226 cell line was determined; conditions: Homo sapiens

Work on `COCCCNC(=O)c1ccccc1Nc1ccnc(C(F)(F)F)c1` yielded a Proliferation (SF-268 [1]) of 97%, a Proliferation (MCF7 [2]) of 70% and a Proliferation (NCI-H460 [3]) of 105%.
Compound `O=C(Oc1ccc(Cl)cc1Cl)c1ccccc1Nc1ccnc(C(F)(F)F)c1` has a GI50 (NCI-H522) of 4.6 µM, a GI50 (EKVX) of 19 µM and a GI50 (786-0) of 1.9 µM. It also gave a GI50 (HCT-15) of 2.2 µM, a GI50 (SF-539) of 3.8 µM and a GI50 (NCI-H460 [4]) of 4.3 µM. For the same compound, the GI50 (BT-549) was 6.8 µM, the GI50 (MDA-MB-231) was 2.2 µM and the GI50 (UACC-257) was 11 µM. It also gave a GI50 (UACC-62) of 2.3 µM, a GI50 (PC-3) of 8.3 µM and a GI50 (HOP-92) of 12 µM. It also gave a GI50 (HL-60) of 6.6 µM, a Proliferation (SF-268 [1]) of 9% and a GI50 (M14) of 1.9 µM. It also gave a GI50 (OVCAR-3) of 11 µM, a GI50 (SW-620) of 4.6 µM and a GI50 (A549) of 11 µM. It also gave a GI50 (MOLT-4) of 100 µM, a GI50 (ACHN) of 13 µM and a Proliferation (MCF7 [2]) of 3%. It also gave a GI50 (CCRF-CEM) of 3.5 µM, a GI50 (OVCAR-5) of 7.9 µM and a GI50 (MCF7 [5]) of 3.6 µM. For the same compound, the GI50 (NCI-H322M) was 14 µM, the GI50 (CAKI-1) was 2.1 µM and the GI50 (SN12C) was 3 µM. It also gave a GI50 (SK-MEL-5) of 2.8 µM, a GI50 (TK-10) of 4.1 µM and a GI50 (Hs-578T) of 25 µM. It also gave a GI50 (A498) of 21 µM, a GI50 (SF-295) of 15 µM and a GI50 (MDA-MB-435) of 2.9 µM. It also gave a GI50 (SF-268 [6]) of 3.1 µM, a GI50 (OVCAR-8) of 4.8 µM and a GI50 (NCI-H23) of 3.5 µM. It also gave a Proliferation (NCI-H460 [3]) of 1%, a GI50 (HCC 2998) of 3.2 µM and a GI50 (NCI/ADR-RES) of 3.6 µM. For the same compound, the GI50 (SR) was 0.77 µM, the GI50 (K562) was 3 µM and the GI50 (KM12) was 3.7 µM. The GI50 (RPMI-8226) was 2.4 µM, the GI50 (DU-145) was 16 µM and the GI50 (NCI-H226) was 3.4 µM.
For `COc1ccc(OC(=O)c2ccccc2Nc2ccnc(C(F)(F)F)c2)cc1`, the Proliferation (SF-268 [1]) was 105%, the Proliferation (MCF7 [2]) was 74% and the Proliferation (NCI-H460 [3]) was 49%.
